This is an account of results in patent US12162858B2, “Quinoline derivatives as inhibitors of AXL/MER RTK and CSF1R” (QURIENT CO., LTD., priority 2018, dated 2024).

This assay addresses T1, Axl (Homo sapiens, UniProt P30530).
T1 sequence (P30530 26-894): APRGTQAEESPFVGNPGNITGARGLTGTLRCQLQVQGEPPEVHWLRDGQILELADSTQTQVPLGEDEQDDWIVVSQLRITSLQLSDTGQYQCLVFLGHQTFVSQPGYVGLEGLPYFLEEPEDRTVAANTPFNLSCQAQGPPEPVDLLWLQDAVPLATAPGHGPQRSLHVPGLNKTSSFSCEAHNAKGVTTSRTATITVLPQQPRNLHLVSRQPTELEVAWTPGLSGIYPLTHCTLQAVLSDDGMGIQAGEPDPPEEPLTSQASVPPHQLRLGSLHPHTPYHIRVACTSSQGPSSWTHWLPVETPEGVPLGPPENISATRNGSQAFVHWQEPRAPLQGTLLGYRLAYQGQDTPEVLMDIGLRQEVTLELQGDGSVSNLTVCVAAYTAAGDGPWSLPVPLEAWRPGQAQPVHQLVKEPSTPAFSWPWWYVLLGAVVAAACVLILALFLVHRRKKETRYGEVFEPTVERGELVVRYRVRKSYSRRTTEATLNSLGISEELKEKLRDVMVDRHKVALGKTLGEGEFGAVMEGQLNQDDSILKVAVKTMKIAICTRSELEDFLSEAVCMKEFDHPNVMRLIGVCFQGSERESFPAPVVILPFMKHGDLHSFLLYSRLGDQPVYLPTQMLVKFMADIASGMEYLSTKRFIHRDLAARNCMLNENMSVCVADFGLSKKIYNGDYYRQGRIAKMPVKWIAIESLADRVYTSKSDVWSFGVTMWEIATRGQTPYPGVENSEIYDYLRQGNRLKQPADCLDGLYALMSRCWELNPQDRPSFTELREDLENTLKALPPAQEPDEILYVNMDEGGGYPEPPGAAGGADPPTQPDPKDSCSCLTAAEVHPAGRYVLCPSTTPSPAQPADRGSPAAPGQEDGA
The assay can be described thus: Cellular Axl inhibition ELISA (p-Axl, Gas6-induced) using H1299 cells. In kind it is cell-based. The arrangement: especially H1299 cell endogenously expresses Axl; endogenous in cells; host or cells: H1299. Conditions: read-out: Cellular Axl activity by H1299 Elisa (IC50). Put shortly: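 H1299 cells, seeded overnight, exposed 24 h at 37 °C to 10-point 3-fold compound dilutions, then stimulated with 200 ng/ml human Gas6 (final) for 1 h. Lysates assayed for p-Axl by sandwich ELISA with HRP/TMB, absorbance 450 nm; IC50 by sigmoidal dose-response fit.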
(An ELISA detects its analyte on a solid surface through an enzyme-linked reagent.)
On to `COc1cc2nccc(Oc3ccc(NC(=O)c4nn(C5CCOC5)cc4OCC(F)(F)F)cc3F)c2cc1OC` (stereo not drawn) [Compound 55], for which the IC50 (as a rule, the point on the concentration scale where inhibition reaches its midpoint) is less than 500 nM. The same measure for `COc1cc2nccc(Oc3ccc(NC(=O)c4nn(CCO)cc4OCC(F)(F)F)cc3C)c2cc1OC` [Compound 56]: not below 1000 nM; for `COc1cc2nccc(Oc3ccc(NC(=O)c4nn(C5CCCC5)cc4OCC(F)(F)F)cc3C)c2cc1OC` [Compound 57]: less than 500 nM; for `COc1cc2nccc(Oc3ccc(NC(=O)c4nn(CC(C)C)cc4OCC(F)(F)F)cc3C)c2cc1OC` [Compound 58]: less than 500 nM.

As for `COc1cc2nccc(Oc3ccc(NC(=O)c4nn(CCO)cc4OCC(F)(F)F)cc3)c2cc1OC` [Compound 59], the IC50 was less than 500 nM. Consider `COc1cc2nccc(Oc3ccc(NC(=O)c4nn(C5CCCC5)cc4OCC(F)(F)F)cc3)c2cc1OC` [Compound 60], for which the IC50 was less than 500 nM.

For the compound `COCCn1cc(OCC(F)(F)F)c(C(=O)Nc2ccc(Oc3ccnc4cc(OC)c(OC)cc34)cc2)n1` [Compound 61], the concentration for half-maximal inhibition (IC50) was less than 500 nM. For `COc1cc2nccc(Oc3ccc(NC(=O)c4nn(C5CCOC5)cc4OCC(F)(F)F)cc3)c2cc1OC` (stereo not drawn) [Compound 62], the half-maximal inhibitory concentration (IC50) was less than 500 nM. The same measure for `COc1cc2nccc(Oc3ccc(NC(=O)c4nn(CC(C)N)cc4OCC(F)(F)F)nc3)c2cc1OC` (stereo not drawn) [Compound 63]: less than 500 nM; for `COc1cc2nccc(Oc3ccc(NC(=O)c4nn(CC(C)(F)F)cc4OCC(F)(F)F)nc3)c2cc1OC` [Compound 64]: less than 500 nM. Turning to `COc1cc2nccc(Oc3ccc(NC(=O)c4nn(CCOC5CCC5)cc4OCC(F)(F)F)nc3)c2cc1OC` [Compound 65], the IC50 is less than 500 nM. The same measure for `COc1cc2nccc(Oc3ccc(NC(=O)c4nn(C5COC5)cc4OCC(F)(F)F)nc3)c2cc1OC` [Compound 66]: less than 500 nM; for `COc1cc2nccc(Oc3ccc(NC(=O)c4nn(CCO)cc4OCC(F)(F)F)nc3)c2cc1OC` [Compound 67]: less than 500 nM. Next, `COc1cc2nccc(Oc3ccc(NC(=O)c4nn(CCCN)cc4OCC(F)(F)F)nc3)c2cc1OC` [Compound 68]: less than 500 nM. Next, `COc1cc2nccc(Oc3ccc(NC(=O)c4nn(C5CCCCC5)cc4OCC(F)(F)F)nc3)c2cc1OC` [Compound 69]: less than 500 nM; `COc1cc2nccc(Oc3ccc(NC(=O)c4nn(C5CCNC5)cc4OCC(F)(F)F)nc3)c2cc1OC` (stereo not drawn) [Compound 70]: less than 500 nM; `COc1cc2nccc(Oc3ccc(NC(=O)c4nn(CC5CCCC5)cc4OCC(F)(F)F)nc3)c2cc1OC` [Compound 71]: less than 500 nM. Consider `COc1cc2nccc(Oc3ccc(NC(=O)c4nn(CC5CCNC5)cc4OCC(F)(F)F)nc3)c2cc1OC` (stereo not drawn) [Compound 72], for which the IC50 is not below 1000 nM.

For the compound `COc1cc2nccc(Oc3ccc(NC(=O)c4nn(CC5CNC5)cc4OCC(F)(F)F)nc3)c2cc1OC` [Compound 73], the 50% inhibitory concentration (IC50) was not below 1000 nM. The same measure for `COc1cc2nccc(Oc3ccc(NC(=O)c4nn(C5CCNC5)cc4OCC(F)(F)F)c(F)c3)c2cc1OC` (stereo not drawn) [Compound 74]: less than 500 nM; for `COc1cc2nccc(Oc3ccc(NC(=O)c4nn(CCN)cc4OCC(F)(F)F)c(F)c3)c2cc1OC` [Compound 75]: less than 500 nM. The same measure for `COc1cc2nccc(Oc3ccc(NC(=O)c4nn(CC(C)O)cc4OCC(F)(F)F)c(F)c3)c2cc1OC` (stereo not drawn) [Compound 76]: less than 500 nM. The same measure for `COc1cc2nccc(Oc3ccc(NC(=O)c4nn(CCC(F)(F)F)cc4OCC4CCC4)nc3)c2cc1OC` [Compound 166]: less than 500 nM; for `CCCn1cc(OCC2CCC2)c(C(=O)Nc2ccc(Oc3ccnc4cc(OC)c(OC(F)(F)F)cc34)cn2)n1` [Compound 167]: less than 500 nM. Turning to `COc1cc2nccc(Oc3ccc(NC(=O)c4nn(CCNC5CC5)cc4OCC(F)(F)F)nc3)c2cc1OC` [Compound 168], the IC50 was less than 500 nM.

With `COc1cc2nccc(Oc3ccc(NC(=O)c4nn(CC5CCN(C)C5)cc4OCC(F)(F)F)nc3)c2cc1OC` (stereo not drawn) [Compound 169], the IC50 was not below 1000 nM. Next, `COc1cc2nccc(Oc3ccc(NC(=O)c4nn(C5CC5)cc4OCCC(F)(F)F)nc3)c2cc1OC` [Compound 170]: less than 500 nM. As to `COCCOc1cn(C2CC2)nc1C(=O)Nc1ccc(Oc2ccnc3cc(OC)c(OC)cc23)nn1` [Compound 171], the IC50 is less than 500 nM. Next, `COc1cc2nccc(Oc3ccc(NC(=O)c4nn(C5CC5)cc4OCC4CNC4)nn3)c2cc1OC` [Compound 172]: not below 1000 nM; `COc1cc2nccc(Oc3ccc(NC(=O)c4nn(C5CC5)cc4OCCC(F)(F)F)nn3)c2cc1OC` [Compound 173]: less than 500 nM.

`COc1cc2nccc(Oc3ccc(NC(=O)c4nn(CC(C)O)cc4OCC4CN(C)C4)nc3)c2cc1OC` (stereo not drawn) [Compound 174]: the IC50 was not below 1000 nM. Turning to `COc1cc2nccc(Oc3ccc(NC(=O)c4nn(CC(C)O)cc4OCC(F)F)nc3)c2cc1OC` (stereo not drawn) [Compound 175], the IC50 is less than 500 nM. The same measure for `COc1cc2nccc(Oc3ccc(NC(=O)c4nc(CCC(F)(F)F)oc4CCC4CCC4)nc3)c2cc1OC` [Compound 176]: less than 500 nM. The same measure for `CCCn1cc(OCCN(C)C)c(C(=O)Nc2ccc(Oc3ccnc4cc(OC)c(OC)cc34)cn2)n1` [Compound 177]: less than 500 nM.

Regarding `COc1cc2nccc(Oc3ccc(NC(=O)c4cc(C5CC5)cnc4OCC(F)(F)F)nc3)c2cc1OC` [Compound 178], the IC50 was less than 500 nM.

For the compound `COc1cc2nccc(Oc3ccc(NC(=O)c4sc(C5CC5)cc4OCC(F)(F)F)nc3)c2cc1OC` [Compound 179], the IC50 was less than 500 nM.
